According to PubChem BioAssay (NCI):
Values joined by “and” are separate entries in the source; they are usually repeats but may differ in a detail not shown here. Equal entries are not always repeated.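 Dose response: 5 concentrations. Exposure: 48 h. Format: 96-well plates. Endpoint: linear interpolation; highest concentration if not reached. At the GI50, growth is halved. TGI is the concentration that stops growth completely.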

test system: MDA-MB-468 breast; assay: DTP human tumour cell line panel, 48 h

First: COc1cc(/C=C2\CN(S(=O)(=O)c3ccc(C)cc3)C/C(=C\c3cc(CN4CCCC4)c(O)c(OC)c3)C2=O)cc(CN2CCCC2)c1O
Second: CC(=C(c1ccc(OCCN2CCCCC2)cc1)c1ccc(OCCN2CCCCC2)cc1)c1ccc(Cl)cc1
The GI50 of the first is 2.9-fold higher: 1150 nM for the first, 402 nM for the second.

Compared with `CN1CCN(c2ccc(Nc3ncc(Cl)c(NC[C@@H]4CCCO4)n3)cc2)CC1`, `CNC(=O)c1cc(Oc2ccc3nc(NC(=O)c4ccc(CN5CCCN(C)CC5)c(C(F)(F)F)c4)sc3c2)ccn1` is 1.8-fold lower in GI50: 2180 nM for the first, 1190 nM for the second.

`COC(=O)/C=C/c1cc(OC(C)=O)c2c(c1)[C@@H](C(=O)OC)[C@H](c1ccc(OC(C)=O)c(OC(C)=O)c1)O2` and `COc1ccc(C(c2cc(OC)c(OC)c(OC)c2)n2cncn2)cc1O` (configuration not stated) are within 1.5-fold of each other in GI50: 380 nM for the first, 371 nM for the second.

First: C=C1C[C@H](O)[C@H](Br)C(C)(C)[C@@]12CCC(C)=C(Cl)C2
Second: C=C1C(=O)O[C@H]2[C@H]1CC/C(CNC(=O)c1cc3ccccc3[nH]1)=C\CC[C@@]1(C)O[C@@H]21
The GI50 of the first is 28-fold lower: 36.9 nM for the first, 1050 nM for the second.

First: Nc1nc2[nH]cc(CCc3ccc(C(=O)N[C@@H](CCC(=O)O)C(=O)O)cc3)c2c(=O)[nH]1
Second: CC(=O)N[C@@H](Cc1ccc(OP(=O)(O)O)cc1)C(=O)N[C@H]1CCC(=O)N2CCC[C@@H](C(=O)Nc3cccc4ccccc34)N2C1=O
The GI50 of the first is lower: 2570 nM for the first, over 25000 nM for the second.

First: O=[N+]([O-])c1cc([N+](=O)[O-])c(C(F)(F)F)cc1NN=C(c1ccc(O)cc1)c1ccc(O)cc1
Second: C#Cc1cccc(Nc2nc3cc([N+](=O)[O-])ccc3nc2Nc2ccc(O)cc2)c1
The GI50 of the first is 2.2-fold higher: 3210 nM for the first, 1430 nM for the second.

First: O=C(Nc1cccc(C(F)(F)F)c1)Nc1cccc(C(F)(F)F)c1
Second: CCN(CC)c1ccc(/C=N/NC(=O)c2ccc(S(N)(=O)=O)cc2)c(O)c1
The GI50 of the first is 2.6-fold higher: 675 nM for the first, 258 nM for the second.

Going from `COc1c2ccccc2c(OC)c2[nH]c(=O)ccc12` to `CCOC(=O)n1cc(C2=C(c3ccc(OC)c(OC)c3)COC2=O)c2ccccc21`, the GI50 falls from 4770 nM to 35.7 nM (130-fold).

Going from `COc1ccc(Cn2c(Br)c3c(c2Br)-c2nc(N)sc2CC3)cc1` to `CCCn1cnc2c(c1=N)C(c1ccc(F)cc1)c1sc3c(CC)cccc3c1O2` (configuration not stated), the GI50 falls from 1900 nM to 350 nM (5.4-fold).

Going from `c1ccc(-c2n(Cc3ccc4ccccc4n3)cc[n+]2Cc2ccc3ccccc3c2)cc1` to `CCNC(=O)C#Cc1ccc2c(C(=Nc3ccc(CN(C)C)cc3)c3ccccc3)c(O)[nH]c2c1`, the GI50 falls from 222 nM to 62.1 nM (3.6-fold).

`CCCCCCOc1ccc(/C=N/Nc2cc(C)nc3ccc(Cl)cc23)cc1` and `CN(C)CC(O)c1ccc(/C=C/c2ccc(Cl)cc2)cc1` (configuration not stated) are within 1.5-fold of each other in GI50: 1650 nM for the first, 1750 nM for the second.

Compared with `C#CC(=O)N(c1ccc(OC)cc1OC)C(C(=O)NCC(=O)OCC)c1cccs1` (configuration not stated), `O=C1c2ccccc2C(=O)c2c(/C=C\N3CCCCC3)ccnc21` is 41-fold higher in GI50: 316 nM for the first, 12900 nM for the second.

`CCCCCCCCCCSC(=N)N` (tested in a mixture with another compound) was tested, and the GI50 was 2100 nM.

Compared with `COc1cc(/C=C2\CN(S(=O)(=O)c3ccc(C)cc3)C/C(=C\c3cc(CN4CCCC4)c(O)c(OC)c3)C2=O)cc(CN2CCCC2)c1O`, `CC(=C(c1ccc(OCCN2CCCCC2)cc1)c1ccc(OCCN2CCCCC2)cc1)c1ccc(Cl)cc1` is 3.3-fold lower in TGI: 2650 nM for the first, 809 nM for the second.

Compared with `CN1CCN(c2ccc(Nc3ncc(Cl)c(NC[C@@H]4CCCO4)n3)cc2)CC1`, `CNC(=O)c1cc(Oc2ccc3nc(NC(=O)c4ccc(CN5CCCN(C)CC5)c(C(F)(F)F)c4)sc3c2)ccn1` is 2.6-fold lower in TGI: 6640 nM for the first, 2590 nM for the second.

First: COC(=O)/C=C/c1cc(OC(C)=O)c2c(c1)[C@@H](C(=O)OC)[C@H](c1ccc(OC(C)=O)c(OC(C)=O)c1)O2
Second: COc1ccc(C(c2cc(OC)c(OC)c(OC)c2)n2cncn2)cc1O (configuration not stated)
The TGI of the first is lower: 13700 nM for the first, over 100000 nM for the second.

First: C=C1C[C@H](O)[C@H](Br)C(C)(C)[C@@]12CCC(C)=C(Cl)C2
Second: C=C1C(=O)O[C@H]2[C@H]1CC/C(CNC(=O)c1cc3ccccc3[nH]1)=C\CC[C@@]1(C)O[C@@H]21
The TGI of the first is 9.1-fold lower: 397 nM for the first, 3600 nM for the second.

`Nc1nc2[nH]cc(CCc3ccc(C(=O)N[C@@H](CCC(=O)O)C(=O)O)cc3)c2c(=O)[nH]1` and `CC(=O)N[C@@H](Cc1ccc(OP(=O)(O)O)cc1)C(=O)N[C@H]1CCC(=O)N2CCC[C@@H](C(=O)Nc3cccc4ccccc34)N2C1=O` cannot be ordered by TGI: over 100000 nM for the first, over 25000 nM for the second.

Compared with `O=[N+]([O-])c1cc([N+](=O)[O-])c(C(F)(F)F)cc1NN=C(c1ccc(O)cc1)c1ccc(O)cc1`, `C#Cc1cccc(Nc2nc3cc([N+](=O)[O-])ccc3nc2Nc2ccc(O)cc2)c1` is 4.7-fold lower in TGI: 15400 nM for the first, 3260 nM for the second.

Going from `O=C(Nc1cccc(C(F)(F)F)c1)Nc1cccc(C(F)(F)F)c1` to `CCN(CC)c1ccc(/C=N/NC(=O)c2ccc(S(N)(=O)=O)cc2)c(O)c1`, the TGI falls from 3170 nM to 1140 nM (2.8-fold).

`COc1c2ccccc2c(OC)c2[nH]c(=O)ccc12` and `CCOC(=O)n1cc(C2=C(c3ccc(OC)c(OC)c3)COC2=O)c2ccccc21` cannot be ordered by TGI: over 91700 nM for the first, over 100000 nM for the second.

Going from `C=CC(=O)Nc1cc(Nc2nccc(-c3cn(C)c4ccccc34)n2)c(OC)cc1N(C)CCN(C)C` to `CCNC(=O)C#Cc1ccc2c(C(=Nc3ccc(CN(C)C)cc3)c3ccccc3)c(O)[nH]c2c1`, the TGI rises from 332 nM to 914 nM (2.8-fold).

Compared with `COc1ccc(Cn2c(Br)c3c(c2Br)-c2nc(N)sc2CC3)cc1`, `CCCn1cnc2c(c1=N)C(c1ccc(F)cc1)c1sc3c(CC)cccc3c1O2` (configuration not stated) is higher in TGI: 14000 nM for the first, over 100000 nM for the second.

First: c1ccc(-c2n(Cc3ccc4ccccc4n3)cc[n+]2Cc2ccc3ccccc3c2)cc1
Second: CCCCCCOc1ccc(/C=N/Nc2cc(C)nc3ccc(Cl)cc23)cc1
The TGI of the first is 2.9-fold lower: 1090 nM for the first, 3130 nM for the second.

First: C#CC(=O)N(c1ccc(OC)cc1OC)C(C(=O)NCC(=O)OCC)c1cccs1 (configuration not stated)
Second: CN(C)CC(O)c1ccc(/C=C/c2ccc(Cl)cc2)cc1 (configuration not stated)
The TGI of the first is 3.3-fold lower: 1170 nM for the first, 3830 nM for the second.

Going from `O=C1c2ccccc2C(=O)c2c(/C=C\N3CCCCC3)ccnc21` to `CCCCCCCCCCSC(=N)N` (tested in a mixture with another compound), the TGI falls from 26800 nM to 4860 nM (5.5-fold).

In the case of `C=CC(=O)Nc1cc(Nc2nccc(-c3cn(C)c4ccccc34)n2)c(OC)cc1N(C)CCN(C)C`, the GI50 is reported as 27.1 nM and 47.2 nM.
